The results in this text go back to patent US6498252B1, “Pyrimidine-2,4,6-trione derivatives, processes for their production and pharmaceutical agents containing these compounds” (priority 1999, dated 2002).

One may read the IC50 as the point on the concentration scale where inhibition reaches its midpoint.

The target of the first test is T1, MMP-8, catalytic domain (Homo sapiens, UniProt P22894).
T1 construct: Enzyme: 8 nM catalytic domain (Met80-Gly242) of human neutrophil collagenase (MMP-8); made in house
T1 sequence (P22894 100-262 limits assumed): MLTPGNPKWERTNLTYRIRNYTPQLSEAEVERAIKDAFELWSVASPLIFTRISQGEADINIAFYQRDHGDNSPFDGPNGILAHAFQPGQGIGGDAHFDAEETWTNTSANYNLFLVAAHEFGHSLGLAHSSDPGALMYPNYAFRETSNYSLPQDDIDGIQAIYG
In words: Inhibition of MMP-8 (HNC) catalytic domain, fluorogenic substrate cleavage. Type of test: biochemical.
Conditions: not given
Here is the method: In order to determine the inhibition of MMPs, for example HNC (MMP-8), the catalytic domain (isolation and purification see for example Schnierer, S., Kleine, T., Gote, T., Hillemann, A., Knäuper, V., Tschesche, H.,Biochem. Biophys. Res. Commun. (1993) 191, 319-326) were incubated with inhibitors having various concentrations. Subsequently, the initial reaction rate in the conversion of a standard substrate was measured in a manner analogous to Grams F. et al., FEBS 335 (1993) 76-80).
The results awee evaluated by plotting the reciprocal reaction rate against the concentration of the inhibitor. The inhibition constant (Ki) is obtained as the negative section of the abscissis by the graphical method according to Dixon, M., Biochem. J. (1953) 55, 170-202.
The synthetic collagenase substrate was a heptapeptide which is coupled, at the C terminus, with DNP (dinitrophenol). Said DNP residue quenched by steric hindrance the fluorescence of the adjacent tryptophane of the heptapeptide. After cleavage of a tripeptide which includes the DNP group, the tryptophane fluorescence increased. The proteolytic cleavage of the substrate therefore was measured by the fluorescence value.
The assay was performed at 25° C. in a freshly prepared 50 mM Tris buffer (pH 8.0) treated with dithiozone to remove traces of heavy metals. 4 mM CaCl2 was added and the buffer saturated with argon. Stock solutions of adamalysin II were prepared by centrifugation of the protein from an ammonium sulfate suspension and subsequent dissolution in the assay buffer. Stock solutions of collagenase were diluted with the assay buffer. Enzyme concentrations were determined by uv measurements (ε280=2.8 10^4 M^−1 cm^−1, ε288: 2.2 10^4 M^−. cm^−1) and the stock solutions were stored in the cold. This solution was diluted 1:100 to obtain the final 16 nM assay concentration. The fluorogenic substrate DNP-Pro-Leu-Gly-Leu-Trp-Ala-D-Arg-NH2 with a Km of 52 μM was used at a concentration of 21.4 μM; for the Ki determination a 12.8 μM concentration has also been used. Substrate fluorescence was measured at an excitation and emission wavelength of λ=320 and 420 nm, respectively, on a spectrofluorimeter (Perkin Elmer, Model 650-40) equipped with a thermostated cell holder. Substrate hydrolysis was monitored for 10 minutes. immediately after adding the enzyme. All reactions were performed at least in triplicate. The Ki values-of the inhibitors were calculated from the intersection point of the straight lines obtained by the plots of vo/vi vs. [concentration of inhibitor], whereas IC50 values were calculated from plots of vi/vo [concentration of inhibitor] by non-linear regression with simple robust weighting.
50 mM Tris/HCI pH 7.6 (Tris=Tris-(hydroxymethyl)-aminomethan)
100 mM NaCl/10 mM CaCl2/5% MeOH (ff necessary)
Enzyme: 8 nM catalytic domain (Met80-Gly242) of human neutrophil collagenase (MMP-8)
10 microM DNP-Pro-Leu-Gly-Leu-Trp-Ala-D-Arg-NH2
A solution of the enzyme and inhibitor in assay buffer (25° C.) was prepared. The reaction was started by giving the substrate into the solution. The cleavage of the fluorogenic substrate was followed by fluorescence spectroscopy with an excitation and emission wavelength of 280 and 350 nm, respectively. The IC50 value was calculated as the inhibitor concentration, which is necessary to decrease the velocity of the reaction to the half in comparison to the reaction without inhibitor.
118 cited in the patent application EP0869947
In the case of `NS(=O)(=O)c1ccc(N2CCN(C3(c4ccc(Oc5ccc(Cl)cc5)cc4)C(=O)NC(=O)NC3=O)CC2)cc1` [Example 5 - no. 9, 4-(4-5-[4-(4-Chloro-phenoxy)-phenyl]-2,4,6-trioxo-hexahydro-pyrimidin-5-yl-piperazin-1-yl)-benzenesulfonamide], the IC50 came to 12 nM.

`O=C1NC(=O)C(c2ccc(Oc3ccc(Cl)cc3)cc2)(N2CCN(c3ccc(S(=O)(=O)N(CCO)CCO)cc3)CC2)C(=O)N1` [Example 5 - no. 10, 4-(4-5[-4-(4-Chloro-phenoxy)-phenyl]-2,4,6-trioxo-hexahydro-pyrimidin-5-yl-piperazin-1-yl)-N,N-bis-(2-hydroxy-ethyl)-benzenesulfonamide] showed an IC50 of 9 nM.

`O=C1NC(=O)C(c2ccc(Oc3ccccc3)cc2)(N2CCN(c3ccc(S(=O)(=O)NCC(O)CO)cc3)CC2)C(=O)N1` (stereo not shown) [Example 5 - no. 11, N-(2,3-Dihydroxy-propyl)-4-4-[2,4,6-trioxo-5-(4-phenoxy-phenyl)-hexahydro-pyrimidin-5-yl]-piperazin-1-yl-benzenesulfonamide] showed an IC50 of 4.5 nM.

`O=C1NC(=O)C(c2ccc(Oc3ccccc3)cc2)(N2CCN(c3ccc(S(=O)(=O)NC(CO)CO)cc3)CC2)C(=O)N1` [Example 5 - no. 12, N-(2-Hydroxy-1-hydroxymethyl-ethyl)-4-4-[2,4,6-trioxo-5-(4-phenoxy-phenyl)-hexahydro-pyrimidin-5-yl]-piperazin-1-yl-benzenesulfonamide] displayed an IC50 of 5.5 nM.

Molecule `O=C1NC(=O)C(c2ccc(Oc3ccccc3)cc2)(N2CCN(c3ccc(S(=O)(=O)NCCOCCOCCO)cc3)CC2)C(=O)N1` [Example 5 - no. 13, N-2-[2-(2-Hydroxy-ethoxy)-ethoxy]-ethyl-4-4-[2,4,6-trioxo-5-(4-phenoxy-phenyl)-hexahydro-pyrimidin-5-yl]-piperazin-1-yl-benzenesulfonamide] came in with an IC50 of 6 nM.

With `O=C1NC(=O)C(c2ccc(Oc3ccc(Cl)cc3)cc2)(N2CCN(c3ccc(S(=O)(=O)NC(CO)(CO)CO)cc3)CC2)C(=O)N1` [Example 5 - no. 19, 4-(4-5-[4-(4-Chloro-phenoxy)-phenyl]-2,4,6-trioxo-hexahydro-pyrimidin-5-yl-piperazin-1-yl)-N-(2-hydroxy-1,1-bis-hydroxymethyl-ethyl)-benzenesulfonamide], half-maximal inhibition (IC50) was put at 9 nM.

Take `O=C1NC(=O)C(c2ccc(Oc3ccccc3)cc2)(N2CCN(c3ccc(S(=O)(=O)NCC4COC(=O)O4)cc3)CC2)C(=O)N1` (stereo not shown) [Example 6, N-(2-Oxo-[1,3]dioxolan-4-ylmethyl)-4-4-[2,4,6-trioxo-5-(4-phenoxy-phenyl)-hexahydro-pyrimidin-5-yl]-piperazin-1-yl-benzenesulfonamide]: the IC50 was found to be 9 nM.

Staying with this test, now noted: catalytic domain of human neutrophil collagenase (MMP-8); substrate DNP-Pro-Leu-Gly-Leu-Trp-Ala-D-Arg-NH2; 25° C.; read-out: IC50 Values of MMP-Inhibitor (vs. MMP-8, catalytic domain).
On to `O=C1NC(=O)C(c2ccc(Oc3ccc(Cl)cc3)cc2)(N2CCN(c3ncccn3)CC2)C(=O)N1` [Example 1, 5-(4-(4-Chloro-phenoxy)-phenyl)-5-(4-pyrimidine-2-yl-piperazine)-pyrimidine-2,4,6-trione], for which the IC50 was found to be 10 nM.

Regarding `O=C1NC(=O)C(c2ccc(Oc3ccc(Cl)cc3)cc2)(N2CCN(c3cnccn3)CC2)C(=O)N1` [Example 2], the IC50 is 4 nM.

`O=C1NC(=O)C(c2ccc(Oc3ccc(Cl)c(Cl)c3)cc2)(N2CCN(c3ncccn3)CC2)C(=O)N1` [Example 3 - no. 1, 5-[4-(3,4-Dichloro-phenoxy)-phenyl]-5-(4-pyrimidin-2-yl-piperazin-1-yl)-pyrimidine-2,4,6-trione]: the IC50 was 4 nM.

As to `O=C1NC(=O)C(c2ccc(Oc3ccc(Cl)c(Cl)c3)cc2)(N2CCN(c3cnccn3)CC2)C(=O)N1` [Example 3 - no. 2, 5-[4-(3,4-Dichloro-phenoxy)-phenyl]-5-(2,3,5,6-tetrahydro-[1,2′]bipyrazinyl-4-yl)-pyrimidine-2,4,6-trione], the IC50 is 2 nM.

Regarding `O=C1NC(=O)C(c2ccc(Oc3ccc(Br)cc3)cc2)(N2CCN(c3ncccn3)CC2)C(=O)N1` [Example 3 - no. 15, 5-[4-(4-Bromo-phenoxy)-phenyl]-5-(4-pyrimidin-2-yl-piperazin-1-yl)-pyrimidine-2,4,6-trione], the IC50 came out at 4 nM.

As to `O=C1NC(=O)C(c2ccc(Oc3ccc(Cl)cc3)cc2)(N2CCN(c3ccc(S(=O)(=O)NCCO)cc3)CC2)C(=O)N1` [Example 4, 4-(4-5-[4-(4-Chloro-phenoxy)-phenyl]-2,4,6-trioxo-hexahydro-pyrimidin-5-yl-piperazin-1-yl)-N-(2-hydroxy-ethyl)-benzenesulfonamide], the IC50 amounted to 10 nM.

With `NS(=O)(=O)c1ccc(N2CCN(C3(c4ccc(Oc5ccc(Br)cc5)cc4)C(=O)NC(=O)NC3=O)CC2)cc1` [Example 5 - no. 6, 4-(4-5-[4-(4-Bromo-phenoxy)-phenyl]-2,4,6-trioxo-hexahydro-pyrimidin-5-yl-piperazin-1-yl)-benzenesulfonamide], the IC50 was 2.8 nM.

For `CN(C)CCNS(=O)(=O)c1ccc(N2CCN(C3(c4ccc(Oc5ccc(Br)cc5)cc4)C(=O)NC(=O)NC3=O)CC2)cc1` [Example 5 - no. 7, 4-(4-5-[4-(4-Bromo-phenoxy)-phenyl]-2,4,6-trioxo-hexahydro-pyrimidin-5-yl-piperazin-1-yl)-N-(2-dimethylamino-ethyl)-benzenesulfonamide], the half-inhibitory concentration (IC50) amounted to 13 nM.

For `O=C1NC(=O)C(c2ccc(Oc3ccccc3)cc2)(N2CCN(c3ccc(S(=O)(=O)NC(CO)(CO)CO)cc3)CC2)C(=O)N1` [Example 5 - no. 18, N-(2-Hydroxy-1,1-bis-hydroxymethyl-ethyl)-4,4-[2,4,6-trioxo-5-(4-phenoxy-phenyl)-hexahydro-pyrimidin-5-yl]-piperazin-1-yl-benzenesulfonamide], the IC50 was determined as 13 nM.
